Experimental data: ChEMBL document CHEMBL1201862, “PubChem BioAssay data set” (2004)
Activity calls are given as the source filed them.

How the values were obtained:
[1] = biological target: T1, Dual specificity protein phosphatase 3 (Homo sapiens, UniProt P51452); assay: SAR VHR1 absorbance Assay for In Vitro dose response studies. [Related pubchem assays (depositor defined):AID1654, AID1661, AID1878, AID1992, AID2004]
[2] = biological target: T2, Tyrosine-protein phosphatase non-receptor type 7 (Homo sapiens, UniProt P35236); assay: redox-active compounds inhibiting HePTP phosphatase – biochemical, fluorescence, mechanism study (AID 2068); format: functional
T2 sequence (P35236 whole entry): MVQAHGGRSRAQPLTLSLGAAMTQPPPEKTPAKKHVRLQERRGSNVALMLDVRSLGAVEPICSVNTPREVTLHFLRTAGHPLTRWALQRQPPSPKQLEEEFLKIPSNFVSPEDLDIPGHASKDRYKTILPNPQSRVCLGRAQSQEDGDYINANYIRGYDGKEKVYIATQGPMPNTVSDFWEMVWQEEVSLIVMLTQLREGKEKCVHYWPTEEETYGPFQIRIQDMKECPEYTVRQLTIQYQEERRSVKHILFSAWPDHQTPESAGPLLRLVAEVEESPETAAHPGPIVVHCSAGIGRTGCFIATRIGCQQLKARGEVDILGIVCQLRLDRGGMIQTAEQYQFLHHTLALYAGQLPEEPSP

[3] = biological target: T1, Dual specificity protein phosphatase 3; assay: SAR VHR1 Fluorescent Assay for In Vitro dose response studies. [Related pubchem assays (depositor defined):AID1654, AID1661, AID1878, AID1992, AID2004, AID2070, AID2085]; format: functional
[4] = biological target: T3, Dual specificity protein phosphatase 6 (Rattus norvegicus, UniProt Q64346); format: functional;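 further: confirmatory in vitro dose-response testing of MKP-3 inhibition; recombinant His-tagged MKP-3 made in E. coli BL21 with OMFP substrate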
T3 sequence (Q64346 whole entry): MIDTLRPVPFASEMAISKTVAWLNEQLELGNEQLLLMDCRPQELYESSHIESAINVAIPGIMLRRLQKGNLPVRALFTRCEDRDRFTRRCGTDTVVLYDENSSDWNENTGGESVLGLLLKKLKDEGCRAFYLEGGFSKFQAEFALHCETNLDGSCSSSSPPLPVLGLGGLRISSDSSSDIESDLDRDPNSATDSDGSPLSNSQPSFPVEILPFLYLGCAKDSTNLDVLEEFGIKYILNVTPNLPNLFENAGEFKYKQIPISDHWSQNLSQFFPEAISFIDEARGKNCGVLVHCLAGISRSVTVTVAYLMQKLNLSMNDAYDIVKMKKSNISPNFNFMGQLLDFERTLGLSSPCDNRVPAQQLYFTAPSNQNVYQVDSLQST

[5] = biological target: Metabotropic glutamate receptor 4 (Homo sapiens, UniProt Q14833); assay: Modulation of the Metabotropic Glutamate Receptor mGluR4: Potency at human mGluR4. Modulation of intracellular Ca2+ using Fluo-4, AM, in CHO expressing recombinant receptor [Related pubchem assays (depositor defined):AID2437, AID2807]; format: functional, cell-based
[6] = biological target: Metabotropic glutamate receptor 4 (Rattus norvegicus, UniProt P31423); assay: Modulation of the Metabotropic Glutamate Receptor mGluR4: Rat PAM Potency. [Related pubchem assays (depositor defined):AID2437, AID2807]; format: functional
X-box-binding protein 1 = X-box-binding protein 1 (Homo sapiens, UniProt P17861); format: functional, Cricetulus griseus;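 further: confirmatory dose-response counter-screen serving a CHOP assay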
[7] = biological target: NACHT, LRR and PYD domains-containing protein 3 (Homo sapiens, UniProt Q96P20); assay: NALP3 inhibitors in yeast, dose response, luminescent (AID 488799); format: functional
[8] = biological target: Multidrug resistance protein CDR1 (Candida albicans, UniProt P43071); assay: inhibition of Nile Red efflux via Candida CDR1 – S. cerevisiae AD1-8u, singleplex, Cherry Pick1 hits, dose response (AID 588606); format: functional
[9] = biological target: Melanin-concentrating hormone receptor 1 (Homo sapiens, UniProt Q99705); assay: Late-stage fluorescence-based counterscreen for antagonists of the G-protein coupled receptor 7 (GPR7): cell-based dose response assay to identify antagonists of the melanin-concentrating hormone receptor 1 (MCHR1). [Related pubchem assays (depositor defined):AID1861, AID1880, AID1952, AID2148, AID2251, AID2257, AID485339]; format: functional;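 further: stimulated with 30 nM MCH peptide agonist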
[10] = biological target: Neuropeptides B/W receptor type 1 (Homo sapiens, UniProt P48145); assay: human NPBW1 receptor blockade, IC50 – cell-based, fluorescence, dose response, late-stage follow-up (AID 463251); format: functional
Neuropeptides B/W receptor type 1, sequence (P48145 whole entry): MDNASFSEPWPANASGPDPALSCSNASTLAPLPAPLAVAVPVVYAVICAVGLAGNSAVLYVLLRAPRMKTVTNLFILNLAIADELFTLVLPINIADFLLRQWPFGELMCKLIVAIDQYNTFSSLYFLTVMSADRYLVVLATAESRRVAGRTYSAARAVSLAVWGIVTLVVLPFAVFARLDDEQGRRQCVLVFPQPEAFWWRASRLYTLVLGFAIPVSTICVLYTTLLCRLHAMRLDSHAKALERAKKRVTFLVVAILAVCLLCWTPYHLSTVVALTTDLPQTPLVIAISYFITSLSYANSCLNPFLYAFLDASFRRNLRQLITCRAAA

T1 sequence (P51452 whole entry): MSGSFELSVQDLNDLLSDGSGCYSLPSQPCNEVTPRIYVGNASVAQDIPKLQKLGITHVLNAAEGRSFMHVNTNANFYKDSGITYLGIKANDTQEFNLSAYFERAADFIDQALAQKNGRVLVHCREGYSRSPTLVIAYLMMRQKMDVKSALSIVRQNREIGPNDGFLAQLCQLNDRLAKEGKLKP
Metabotropic glutamate receptor 4 (Homo sapiens, UniProt Q14833), sequence (Q14833 whole entry): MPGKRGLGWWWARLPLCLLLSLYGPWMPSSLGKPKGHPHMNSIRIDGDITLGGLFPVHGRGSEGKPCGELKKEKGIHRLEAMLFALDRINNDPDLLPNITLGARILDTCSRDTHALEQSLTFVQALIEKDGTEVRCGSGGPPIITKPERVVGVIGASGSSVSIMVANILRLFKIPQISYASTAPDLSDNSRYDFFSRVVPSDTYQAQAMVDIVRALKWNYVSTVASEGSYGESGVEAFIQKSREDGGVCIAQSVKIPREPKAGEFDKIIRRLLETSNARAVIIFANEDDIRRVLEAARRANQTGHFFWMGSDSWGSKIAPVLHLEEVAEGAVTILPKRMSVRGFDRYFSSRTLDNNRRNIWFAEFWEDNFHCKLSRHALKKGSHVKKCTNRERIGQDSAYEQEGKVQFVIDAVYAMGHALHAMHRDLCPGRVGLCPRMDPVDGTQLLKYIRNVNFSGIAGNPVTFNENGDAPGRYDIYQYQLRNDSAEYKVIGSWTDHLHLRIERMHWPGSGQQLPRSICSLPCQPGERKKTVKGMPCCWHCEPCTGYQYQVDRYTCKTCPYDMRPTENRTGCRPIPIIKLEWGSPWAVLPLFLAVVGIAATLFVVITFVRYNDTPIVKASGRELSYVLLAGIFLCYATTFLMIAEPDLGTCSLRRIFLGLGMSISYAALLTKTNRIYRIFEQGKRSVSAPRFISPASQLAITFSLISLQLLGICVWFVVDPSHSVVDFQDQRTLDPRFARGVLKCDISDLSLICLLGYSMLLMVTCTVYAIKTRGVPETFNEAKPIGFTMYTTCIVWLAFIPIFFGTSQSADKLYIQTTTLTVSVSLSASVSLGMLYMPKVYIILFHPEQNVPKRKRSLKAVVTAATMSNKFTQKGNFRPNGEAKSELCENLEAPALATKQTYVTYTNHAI
Melanin-concentrating hormone receptor 1, sequence (Q99705 whole entry): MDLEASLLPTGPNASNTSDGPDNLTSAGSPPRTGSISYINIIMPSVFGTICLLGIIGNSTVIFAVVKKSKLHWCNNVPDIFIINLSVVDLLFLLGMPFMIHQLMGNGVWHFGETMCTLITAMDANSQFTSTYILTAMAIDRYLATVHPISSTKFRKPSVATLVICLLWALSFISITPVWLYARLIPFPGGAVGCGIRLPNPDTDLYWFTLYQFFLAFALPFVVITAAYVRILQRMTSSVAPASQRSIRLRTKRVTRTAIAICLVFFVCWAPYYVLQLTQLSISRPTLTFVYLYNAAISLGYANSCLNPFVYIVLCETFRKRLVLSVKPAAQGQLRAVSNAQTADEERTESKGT
X-box-binding protein 1, sequence (P17861 whole entry, the tested form may be a part): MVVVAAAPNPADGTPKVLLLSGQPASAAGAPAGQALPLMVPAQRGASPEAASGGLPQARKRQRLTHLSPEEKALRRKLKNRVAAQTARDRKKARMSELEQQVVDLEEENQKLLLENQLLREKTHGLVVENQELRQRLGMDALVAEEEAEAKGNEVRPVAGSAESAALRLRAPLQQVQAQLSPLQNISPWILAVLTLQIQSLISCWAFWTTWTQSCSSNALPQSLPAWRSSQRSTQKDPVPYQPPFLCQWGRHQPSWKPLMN
Metabotropic glutamate receptor 4 (Rattus norvegicus, UniProt P31423), sequence (P31423 whole entry): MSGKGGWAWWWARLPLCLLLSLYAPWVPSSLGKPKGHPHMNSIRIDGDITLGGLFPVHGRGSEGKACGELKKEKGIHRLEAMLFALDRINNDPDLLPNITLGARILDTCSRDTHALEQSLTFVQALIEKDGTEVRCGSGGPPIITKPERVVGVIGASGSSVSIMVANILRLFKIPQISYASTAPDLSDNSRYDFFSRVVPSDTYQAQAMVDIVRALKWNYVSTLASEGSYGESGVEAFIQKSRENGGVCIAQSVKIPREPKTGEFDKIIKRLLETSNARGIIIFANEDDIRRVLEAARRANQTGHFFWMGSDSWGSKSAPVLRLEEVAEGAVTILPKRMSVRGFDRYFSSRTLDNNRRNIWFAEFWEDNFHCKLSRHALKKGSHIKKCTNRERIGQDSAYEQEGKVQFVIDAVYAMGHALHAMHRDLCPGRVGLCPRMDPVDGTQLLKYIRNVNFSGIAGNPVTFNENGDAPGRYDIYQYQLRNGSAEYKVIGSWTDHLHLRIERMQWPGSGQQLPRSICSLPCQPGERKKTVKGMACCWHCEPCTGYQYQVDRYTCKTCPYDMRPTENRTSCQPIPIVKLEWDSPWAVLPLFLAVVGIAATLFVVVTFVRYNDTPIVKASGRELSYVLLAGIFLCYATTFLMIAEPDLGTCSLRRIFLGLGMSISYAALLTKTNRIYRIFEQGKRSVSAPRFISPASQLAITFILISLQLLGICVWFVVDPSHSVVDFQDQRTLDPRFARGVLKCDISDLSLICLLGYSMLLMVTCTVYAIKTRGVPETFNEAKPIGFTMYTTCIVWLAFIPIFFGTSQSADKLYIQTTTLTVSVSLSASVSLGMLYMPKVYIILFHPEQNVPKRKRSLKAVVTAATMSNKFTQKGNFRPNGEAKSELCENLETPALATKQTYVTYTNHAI
NACHT, LRR and PYD domains-containing protein 3, sequence (Q96P20 whole entry, the tested form may be a part): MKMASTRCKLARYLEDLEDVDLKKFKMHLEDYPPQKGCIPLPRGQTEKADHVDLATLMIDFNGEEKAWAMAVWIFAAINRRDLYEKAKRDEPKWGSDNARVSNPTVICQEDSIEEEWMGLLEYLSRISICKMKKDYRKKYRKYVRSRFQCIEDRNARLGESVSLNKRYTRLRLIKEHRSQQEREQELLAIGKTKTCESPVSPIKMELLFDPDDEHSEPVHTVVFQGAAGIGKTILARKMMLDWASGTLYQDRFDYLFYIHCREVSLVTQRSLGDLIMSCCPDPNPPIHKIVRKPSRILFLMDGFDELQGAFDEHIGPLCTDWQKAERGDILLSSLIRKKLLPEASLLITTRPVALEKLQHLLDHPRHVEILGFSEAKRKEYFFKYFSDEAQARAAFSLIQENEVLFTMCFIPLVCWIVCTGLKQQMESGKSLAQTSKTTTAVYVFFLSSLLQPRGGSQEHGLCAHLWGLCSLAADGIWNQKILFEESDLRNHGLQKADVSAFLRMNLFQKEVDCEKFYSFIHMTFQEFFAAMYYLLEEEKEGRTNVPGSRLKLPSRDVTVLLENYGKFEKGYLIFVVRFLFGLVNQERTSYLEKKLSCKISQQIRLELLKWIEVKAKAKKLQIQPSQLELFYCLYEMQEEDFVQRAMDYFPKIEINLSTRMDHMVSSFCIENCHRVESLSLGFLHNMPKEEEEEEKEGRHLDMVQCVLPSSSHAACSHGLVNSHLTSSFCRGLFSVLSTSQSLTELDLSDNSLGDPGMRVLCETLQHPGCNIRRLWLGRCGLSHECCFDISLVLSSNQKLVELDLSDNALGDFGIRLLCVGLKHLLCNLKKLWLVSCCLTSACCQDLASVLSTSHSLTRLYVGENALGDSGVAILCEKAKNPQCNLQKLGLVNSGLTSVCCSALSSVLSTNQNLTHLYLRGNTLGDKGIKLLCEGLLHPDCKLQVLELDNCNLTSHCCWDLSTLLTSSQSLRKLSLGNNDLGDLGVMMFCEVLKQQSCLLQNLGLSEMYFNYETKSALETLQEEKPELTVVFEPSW

With S=C(NCc1ccccc1)c1cn(CCOc2ccccc2)c2ccccc12 the IC50 [1] was > 100 µM (inactive), the IC50 [2] was > 100 µM (inactive) and the IC50 [3] was > 100 µM (inactive). The IC50 [4] was > 100 µM (inactive).

CC1(C)CC(=O)N(c2ccc(NC(=O)c3ccccn3)cc2Cl)C1=O was tested, and the EC50 [5] was 1.48 µM (active) and the EC50 [6] was 2.32 µM (active).

With Cc1ccc(-c2ccc(/C=C(\C#N)C(=O)Nc3cc(C)nn3-c3ccccc3)o2)cc1 the “Absolute IC50 (XBP1)” value (X-box-binding protein 1) was 10 µM.

For CCC1Nc2ncnc(N3CCN(c4ccccn4)CC3)c2N(Cc2ccc(Br)cc2)C1=O (stereo unspecified), the IC50 [7] was 3.71 µM (active) and the EC50 [8] was 12.4 µM (active).

CC(=O)OCc1ccc(Oc2c(Cl)cnn(-c3ccc(C(C)C)cc3)c2=O)cc1 was tested, and the IC50 [9] was 3.5 µM (active) and the IC50 [10] was 1.6 µM (active).
